Data as given in the Deep4Chem optical property database.
Values joined by “and” are separate entries in the source; they are usually repeats but may differ in a detail not shown here. Equal entries are not always repeated.

Assay: solvent given as SMILES

CC1(C)CC(/C=C/c2ccc(-n3cncn3)cc2)=CC(=C(C#N)C#N)C1
emission maximum (in C1CCOC1): 520 nm
emission maximum (in CC#N): 522 nm
emission maximum (in CCO): 518 nm
emission maximum (in CCOC(C)=O): 515 nm
emission maximum (in ClCCl): 518 nm
emission maximum (in c1ccccc1): 511 nm

CN(C)c1ccc(/C=C/c2cccnn2)cc1
emission maximum (in C1CCOC1): 476 nm
emission maximum (in CC#N): 509 nm
emission maximum (in CCCCCCC): 459 nm
emission maximum (in CS(C)=O): 518 nm
emission maximum (in ClCCl): 480 nm

c1ccc(N(c2ccccc2)c2ccc(-c3nc(-c4ccc(N(c5ccccc5)c5ccccc5)cc4)c4ccccc4n3)cc2)cc1
emission maximum (in C1CCCCC1): 447 nm
emission maximum (in C1CCOC1): 518 nm
emission maximum (in CC#N): 565 nm
emission maximum (in CS(C)=O): 568 nm
emission maximum (in ClCCl): 534 nm

CCCCCCn1c(=O)c2c3oc4ccccc4oc3c3c(=O)n(CCCCCC)c(=O)c3c2c1=O
emission maximum (in ClCCl): 487 nm

CC(C)[Si](C#Cc1c2ccc(C(C)(C)C)cc2c(C#C[Si](C(C)C)(C(C)C)C(C)C)c2ccc(C(C)(C)C)cc12)(C(C)C)C(C)C
emission maximum (in Cc1ccccc1): 461 nm

C(#Cc1ccncc1)C(C#Cc1ccncc1)=Cc1ccc(C=C(C#Cc2ccncc2)C#Cc2ccncc2)s1
emission maximum (in ClC(Cl)Cl): 587 nm

CN(C)c1ccc2nc(-c3ccccc3)c(=O)oc2c1
emission maximum (in c1ccccc1): 500 nm

Cc1ccc(N(c2ccc(C)cc2)c2ccc3c(c2)c2cc(N(c4ccc(C)cc4)c4ccc(C)cc4)ccc2n3-c2ccc(-c3nc4cccc5c4n3-c3ccccc3C5(C)C)cc2)cc1
emission maximum (in Cc1ccccc1): 496 nm
emission maximum (in O=P(c1ccccc1)(c1ccccc1)c1ccccc1Oc1ccccc1P(=O)(c1ccccc1)c1ccccc1): 491 nm

CCCCN1C(=O)c2c(Br)c(Br)c3c4c(Br)c(Br)c5c6c(c(Br)c(Br)c(c7c(Br)c(Br)c(c2c37)C1=O)c64)C(=O)N(CCCC)C5=O
emission maximum (in ClC(Cl)Cl): 600 nm

c1ccc2c(c1)c1ccccc1n2-c1ccc2cc(-c3ccc(-c4ccc(-c5cc6ccc(-n7c8ccccc8c8ccccc87)cc6o5)cc4)cc3)oc2c1
emission maximum (in Cc1ccccc1): 419 nm
emission maximum (in c1ccc2c(c1)c1ccccc1n2-c1ccc(-c2ccc(-n3c4ccccc4c4ccccc43)cc2)cc1): 441 nm

CC(C)(C)NC(=O)c1ccc(C(=O)NC(C)(C)C)c2c1c1c3ccccc3c3ccccc3c1c1c3ccccc3c3ccccc3c21
emission maximum (in ClCCl): 476 nm

c1ccc(C2CCN3COc4c5ccccc5c5c6c7c(c2c3c46)C(c2ccccc2)CCN7CO5)cc1 (stereo unspecified)
emission maximum (in C1CCCCC1): 535 nm
emission maximum (in C1CCOC1): 583 nm
emission maximum (in C1COCCO1): 577 nm
emission maximum (in CC#N): 610 nm
emission maximum (in CC(C)=O): 603 nm
emission maximum (in CCOC(C)=O): 584 nm
emission maximum (in CCOCC): 562 nm
emission maximum (in CN(C)C=O): 612 nm
emission maximum (in CO): 598 nm
emission maximum (in CS(C)=O): 618 nm
emission maximum (in Cc1ccccc1): 565 nm
emission maximum (in ClC(Cl)Cl): 596 nm
emission maximum (in ClCCl): 600 nm

Cc1ccc(C2=Cc3c4ccccc4c4ccccc4[n+]3[B-](F)(F)O2)cc1
emission maximum (in ClC(Cl)Cl): 450 nm

CCCCCCCCN1c2ccc(C#Cc3ccc(OC)cc3)cc2Sc2cc(C=O)ccc21
emission maximum (in C1CCOC1): 512 nm
emission maximum (in CC#N): 538 nm
emission maximum (in CCCCCC): 494 nm
emission maximum (in CO): 464 nm
emission maximum (in CS(C)=O): 524 nm
emission maximum (in Cc1ccccc1): 510 nm
emission maximum (in ClC(Cl)Cl): 524 nm

N#Cc1ccc(C[C@H](N)C(=O)O)cc1
emission maximum (in C1CCOC1): 292.44 nm
emission maximum (in CCO): 292.99 nm
emission maximum (in CO): 292.44 nm
emission maximum (in O): 293.54 nm
emission maximum (in O=CO): 294.16 nm

CC1(C)CC(=O)c2c(F)c(F)c(F)c(F)c2N1
emission maximum (in CC#N): 449 nm
emission maximum (in CCO): 479 nm

CCN(CC)c1ccc(C2=C3C(C)=CC(/C=C/c4ccc(OCCCN=[N+]=[N-])cc4)=[N+]3[B-](F)(F)n3c(C)cc(C)c32)cc1
emission maximum (in CO): 587 nm

Cn1c2ccc(S(=O)(=O)Cl)cc2c(=O)c2cc(S(=O)(=O)Cl)ccc21
emission maximum (in CS(C)=O): 424 nm

COc1ccc2cc(-c3ccc([N+](=O)[O-])cc3)ccc2c1
emission maximum (in C1CCOC1): 534 nm
emission maximum (in CC#N): 647 nm
emission maximum (in ClC(Cl)Cl): 573 nm
emission maximum (in ClCCl): 591 nm

c1ccc(-c2nc(-c3ccccc3)nc(-c3ccc(-n4c5ccccc5c5ccc6c7ccccc7n(-c7ccccc7)c6c54)cc3)n2)cc1
emission maximum (in Cc1ccccc1): 459 nm
emission maximum (in O=P(c1ccccc1)(c1ccccc1)c1ccc2oc3ccc(P(=O)(c4ccccc4)c4ccccc4)cc3c2c1): 477 nm

Cc1nnc(-c2ccc(-n3c4ccccc4c4ccccc43)cc2)o1
emission maximum (in CCO): 440 nm
emission maximum (in Cc1ccccc1): 372 nm

COc1ccccc1C1=[N+]2C(=C(c3ccc(I)cc3)c3ccc(-c4ccccc4OC)n3[B-]2(F)F)C=C1
emission maximum (in ClC(Cl)Cl): 598 nm and 597 nm

CC1(C)c2ccccc2-c2cc3c(cc21)c1ccccc1n3-c1cccnc1
emission maximum (in ClCCl): 373 nm

CCOC(=O)COc1ccc(C(c2c(C)[nH]c3ccccc23)c2c(C)[nH]c3ccccc23)cc1
emission maximum (in C1CCCCC1): 327 nm
emission maximum (in CC#N): 340 nm
emission maximum (in CO): 344 nm
emission maximum (in O): 350 nm

CCCCCCc1ccc(-n2c3c4cccc(OC)c4nc(-c4ccc(OC)cc4)c3c3c2c2c(-c4ccc(OC)cc4)nc4c(OC)cccc4c2n3-c2ccc(CCCCCC)cc2)cc1
emission maximum (in ClC(Cl)Cl): 453 nm
